We go through two molecules from article PMC11527692, “Tailored biosynthesis of diosmin through reconstitution of the flavonoid pathway in Nicotiana benthamiana” (Frontiers in Plant Science, 2024).

One experiment has as its target T1, Cs1,6RhaT (Citrus sinensis, UniProt A7ISD3).
T1 sequence (A7ISD3 1-475): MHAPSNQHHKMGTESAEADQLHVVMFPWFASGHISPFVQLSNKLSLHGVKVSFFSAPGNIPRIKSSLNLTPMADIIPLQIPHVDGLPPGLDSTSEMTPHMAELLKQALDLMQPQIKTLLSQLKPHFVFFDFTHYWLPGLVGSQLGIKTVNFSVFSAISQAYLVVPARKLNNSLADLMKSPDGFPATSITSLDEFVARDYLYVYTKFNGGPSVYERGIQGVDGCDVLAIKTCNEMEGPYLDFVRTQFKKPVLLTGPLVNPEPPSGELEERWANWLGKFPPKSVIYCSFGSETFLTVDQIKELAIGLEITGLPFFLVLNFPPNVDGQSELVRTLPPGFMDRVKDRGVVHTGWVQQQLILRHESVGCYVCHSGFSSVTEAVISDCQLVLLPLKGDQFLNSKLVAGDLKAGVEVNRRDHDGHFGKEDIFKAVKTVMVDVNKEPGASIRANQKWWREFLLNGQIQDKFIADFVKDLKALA
Briefly: substrate feeding of E. coli expressing the GST fusion, UPLC-DAD-QToF/MS of product. The class given is cell-based. To be noted: product diosmin; 100 μM substrate, 28 °C, 3 h; whole culture.

In another experiment the target is T2, PaF4′OMT (Plagiochasma appendiculatum, UniProt A0A1X9Y2Y6).
T2 sequence (A0A1X9Y2Y6 1-391): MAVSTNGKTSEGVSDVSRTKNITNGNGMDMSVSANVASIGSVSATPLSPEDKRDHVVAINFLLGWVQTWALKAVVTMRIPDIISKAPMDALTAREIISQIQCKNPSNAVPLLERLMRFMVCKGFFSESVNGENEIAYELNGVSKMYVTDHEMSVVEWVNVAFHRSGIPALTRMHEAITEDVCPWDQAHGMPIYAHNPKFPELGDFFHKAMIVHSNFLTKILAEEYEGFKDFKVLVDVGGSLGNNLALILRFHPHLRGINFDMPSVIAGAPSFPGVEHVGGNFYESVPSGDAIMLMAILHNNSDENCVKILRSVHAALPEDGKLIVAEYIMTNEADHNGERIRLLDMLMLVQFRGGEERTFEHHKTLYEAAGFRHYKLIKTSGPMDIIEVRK
Briefly: substrate feeding of E. coli expressing the GST fusion, HPLC of product. Format: cell-based. As to conditions: product diosmetin; 100 μM substrate (methods name diosmetin, results name luteolin), 28 °C, 3 h; whole culture.

As for `COc1ccc(-c2cc(=O)c3c(O)cc(O[C@@H]4O[C@H](CO)[C@@H](O)[C@H](O)[C@H]4O)cc3o2)cc1O` [diosmetin 7-O-β-D-glucopyranoside], the “substrate feeding of E. coli expressing the GST fusion, UPLC-DAD-QToF/MS of prod” value at Cs1,6RhaT was “the cells expressing Cs1,6RhaT produced the most diosmin”.
Turning to `O=c1cc(-c2ccc(O)c(O)c2)oc2cc(O)cc(O)c12` [luteolin], the “substrate feeding of E. coli expressing the GST fusion, HPLC of product” value on PaF4′OMT was “PaF4′OMT produced the most diosmetin from luteolin”.
